From patent US20250084063A1 (Incyte Corporation, priority 2023, published 2025) come the findings set out here.

Holding throughout (type): cell-based
Experiment [1] has as its target T1, MRGPRX2 (Homo sapiens, UniProt Q96LB1).
T1 sequence (Q96LB1 1-330): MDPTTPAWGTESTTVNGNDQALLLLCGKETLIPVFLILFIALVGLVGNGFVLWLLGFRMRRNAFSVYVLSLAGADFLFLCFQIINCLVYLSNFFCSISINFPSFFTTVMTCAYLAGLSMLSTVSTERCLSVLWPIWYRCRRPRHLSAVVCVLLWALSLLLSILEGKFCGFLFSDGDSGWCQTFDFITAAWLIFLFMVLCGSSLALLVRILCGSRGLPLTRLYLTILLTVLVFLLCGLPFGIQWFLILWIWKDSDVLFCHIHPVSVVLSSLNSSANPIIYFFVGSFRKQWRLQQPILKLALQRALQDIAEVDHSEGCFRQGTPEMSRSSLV
The experiment is described as follows: MRGPRX2 FLIPR calcium mobilization assay. Details: host or cells: CHO-K1. The settings on record: CHO-K1 cells stably expressing human MRGPRX2; Ca2+ release, agonist Cortistatin-14 at EC80. The method in brief:
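CHO-K1 cells stably expressing human MRGPRX2, loaded with Calcium 6 dye, pre-incubated 30 min at room temperature with test compound in HBSS/20 mM HEPES pH 7.4. Then challenged with Cortistatin-14 at EC80; baseline-adjusted peak fluorescence over 110 s fitted to a Hill equation for IC50.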
In general terms: Calcium flux is commonly read through the fluorescence of an indicator in the cells.

Experiment [2] addresses T1, MRGPRX2. As to the kind of experiment: MRGPRX2 IP1 HTRF assay. The arrangement: host or cells: CHO-K1. The settings on record: CHO-K1 cells stably expressing human MRGPRX2; IP1 accumulation, agonist Cortistatin 14 1 μM. On the technique in general: Time-resolved FRET reads energy transfer from a long-lived donor to a nearby acceptor.
Experiment [3] addresses T1, MRGPRX2. The experiment is described as follows: MRGPRX2 β-Arrestin assay. The arrangement: host or cells: PathHunter CHO-K1. The settings on record: PathHunter CHO-K1 MRGPRX2 β-Arrestin cell line; agonist Cortistatin 14 0.25 μM. An outline of the steps: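 PathHunter CHO-K1 cells expressing ProLink-tagged MRGPRX2 and enzyme-acceptor-tagged β-arrestin were preincubated with serially diluted compound 1 h at 37 °C, then stimulated with 0.25 μM cortistatin 14 (final) for 90 min. β-arrestin recruitment was read by luminescence; IC50 from 3- or 4-parameter Hill fits normalised to DMSO and reference antagonist controls.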

In general, IC50 refers to the concentration that gives 50% inhibition.

As to `NS(=O)(=O)N1CC(CNc2cc(C(F)(F)F)nc3ccc(Cl)cc23)(c2ccc(F)cc2)C1` [Example 32, 3-(((6-Chloro-2-(trifluoromethyl)quinolin-4-yl)amino)methyl)-3-(4-fluorophenyl)azetidine-1-sulfonamide], the IC50 at MRGPRX2 [1], at MRGPRX2 [2] and on MRGPRX2 [3] was 0.1 to 100 nM in each case.

For `NC(=O)N1CC(CNc2cc(C(F)(F)F)nc3ccc(Cl)cc23)(c2ccc(F)cn2)C1` [Example 47, 3-(((6-Chloro-2-(trifluoromethyl)quinolin-4-yl)amino)methyl)-3-(5-fluoropyridin-2-yl)azetidine-1-carboxamide], the IC50 on MRGPRX2 [1], at MRGPRX2 [2] and on MRGPRX2 [3] was 0.1 to 100 nM each time.

In the case of `NS(=O)(=O)N1CC(CNc2cc(C(F)(F)F)nc3ccc(F)cc23)(n2cc(F)cn2)C1` [Example 10, 3-(4-Fluoro-1H-pyrazol-1-yl)-3-(((6-fluoro-2-(trifluoromethyl)quinolin-4-yl)amino)methyl)azetidine-1-sulfonamide], the IC50 at MRGPRX2 [1], at MRGPRX2 [2] and at MRGPRX2 [3] was 0.1 to 100 nM throughout.

As to `Fc1ccc(C2(CNc3cc(C(F)(F)F)nc4ccc(Cl)cc34)COCCO2)cc1` (stereo not drawn) [Example 53, 6-Chloro-N-((2-(4-fluorophenyl)-1,4-dioxan-2-yl)methyl)-2-(trifluoromethyl)quinolin-4-amine], the IC50 at MRGPRX2 [1], at MRGPRX2 [2] and on MRGPRX2 [3] was 0.1 to 100 nM in each case.

As for `NS(=O)(=O)N1CC(CNc2cc(C(F)(F)F)nc3ccc(Cl)cc23)(c2ccc(Cl)cn2)C1` [Example 29, 3-(((6-Chloro-2-(trifluoromethyl)quinolin-4-yl)amino)methyl)-3-(5-chloropyridin-2-yl)azetidine-1-sulfonamide], the half-inhibitory concentration (IC50) at MRGPRX2 [1], at MRGPRX2 [2] and on MRGPRX2 [3] was 0.1 to 100 nM throughout.

In the case of `NS(=O)(=O)N1CC(CNc2cc(C(F)(F)F)nc3ccc(Cl)cc23)(c2ccc3ccccc3n2)C1` [Example 80, 3-(((6-Chloro-2-(trifluoromethyl)quinolin-4-yl)amino)methyl)-3-(quinolin-2-yl)azetidine-1-sulfonamide], the concentration for half-maximal inhibition (IC50) on MRGPRX2 [1] was 0.1 to 100 nM; on MRGPRX2 [2] it was 100 to 1000 nM; on MRGPRX2 [3] it was 100 to 1000 nM.

On to `NS(=O)(=O)N1CC(CNc2cc(C(F)(F)C(F)(F)F)nc3ccc(Cl)cc23)(c2ccc(F)cc2)C1` [Example 4, 3-(((6-Chloro-2-(perfluoroethyl)quinolin-4-yl)amino)methyl)-3-(4-fluorophenyl)azetidine-1-sulfonamide], for which the IC50 on MRGPRX2 [1], on MRGPRX2 [2] and on MRGPRX2 [3] was 0.1 to 100 nM in each case.

With `[2H]C([2H])([2H])NC(=O)N1CC(CNc2cc(C(F)(F)F)nc3ccc(Cl)cc23)(n2cc(Cl)cn2)C1` [Example 30, 3-(4-Chloro-1H-pyrazol-1-yl)-3-(((6-chloro-2-(trifluoromethyl)quinolin-4-yl)amino)methyl)-N-(methyl-d3)azetidine-1-carboxamide], the half-inhibitory concentration (IC50) on MRGPRX2 [1], on MRGPRX2 [2] and on MRGPRX2 [3] was 0.1 to 100 nM each time.

For the molecule `FC(F)(F)c1cc(NCC2(c3ccccc3)CCOC2)c2cc(Cl)ccc2n1` (stereo not drawn) [Example 16, 6-Chloro-N-((3-phenyltetrahydrofuran-3-yl)methyl)-2-(trifluoromethyl)quinolin-4-amine], the concentration for half-maximal inhibition (IC50) at MRGPRX2 [1], on MRGPRX2 [2] and at MRGPRX2 [3] was 0.1 to 100 nM throughout.

In the case of `NS(=O)(=O)N1CC(CNc2cc(C(F)(F)F)nc3ccc(Cl)cc23)(n2ccc(F)n2)C1` [Example 18, 3-(((6-Chloro-2-(trifluoromethyl)quinolin-4-yl)amino)methyl)-3-(3-fluoro-1H-pyrazol-1-yl)azetidine-1-sulfonamide], the IC50 on MRGPRX2 [1], on MRGPRX2 [2] and at MRGPRX2 [3] was 0.1 to 100 nM in each case.

As to `Cn1ncc2ccc(C3(CNc4cc(C(F)(F)F)nc5ccc(Cl)cc45)CN(S(N)(=O)=O)C3)cc21` [Example 84, 3-(((6-Chloro-2-(trifluoromethyl)quinolin-4-yl)amino)methyl)-3-(1-methyl-1H-indazol-6-yl)azetidine-1-sulfonamide], the figures for the IC50 on MRGPRX2 [1], on MRGPRX2 [2] and at MRGPRX2 [3] were 0.1 to 100 nM, 100 to 1000 nM and 0.1 to 100 nM, respectively.

Turning to `Cn1ncc2cc(C3(CNc4cc(C(F)(F)F)nc5ccc(Cl)cc45)CN(S(N)(=O)=O)C3)ccc21` [Example 82, 3-(((6-Chloro-2-(trifluoromethyl)quinolin-4-yl)amino)methyl)-3-(1-methyl-1H-indazol-5-yl)azetidine-1-sulfonamide], the 50% inhibitory concentration (IC50) was in the range of 0.1 to 100 nM at MRGPRX2 [1], 100 to 1000 nM at MRGPRX2 [2] and 0.1 to 100 nM at MRGPRX2 [3].

As to `NS(=O)(=O)N1CC(CNc2cc(C(F)(F)F)nc3ccc(F)cc23)(c2ccc(F)cc2)C1` [Example 23, 3-(((6-Fluoro-2-(trifluoromethyl)quinolin-4-yl)amino)methyl)-3-(4-fluorophenyl)azetidine-1-sulfonamide], the half-maximal inhibitory concentration (IC50) at MRGPRX2 [1], at MRGPRX2 [2] and at MRGPRX2 [3] was 0.1 to 100 nM each time.

As for `O=C1NC(=O)C2(CC(CNc3cc(C(F)(F)F)nc4ccc(Cl)cc34)(c3ccccc3)C2)N1` (stereo not drawn) [Example 108, 2-(((6-Chloro-2-(trifluoromethyl)quinolin-4-yl)amino)methyl)-2-phenyl-5,7-diazaspiro[3.4]octane-6,8-dione], the concentration for half-maximal inhibition (IC50) on MRGPRX2 [1], at MRGPRX2 [2] and on MRGPRX2 [3] was 0.1 to 100 nM throughout.

On to `CNC(=O)N1CC(CNc2cc(C(F)(F)F)nc3ccc(Cl)cc23)(n2cc(Cl)cn2)C1` [Example 98, 3-(4-Chloro-1H-pyrazol-1-yl)-3-(((6-chloro-2-(trifluoromethyl)quinolin-4-yl)amino)methyl)-N-methylazetidine-1-carboxamide], for which the 50% inhibitory concentration (IC50) on MRGPRX2 [1], at MRGPRX2 [2] and at MRGPRX2 [3] was 0.1 to 100 nM throughout.

For `CC(C)NC(=O)N1CC(CNc2cc(C(F)(F)F)nc3ccc(Cl)cc23)(n2cc(F)cn2)C1` [Example 21, 3-(((6-Chloro-2-(trifluoromethyl)quinolin-4-yl)amino)methyl)-3-(4-fluoro-1H-pyrazol-1-yl)-N-isopropylazetidine-1-carboxamide], the IC50 at MRGPRX2 [1], at MRGPRX2 [2] and at MRGPRX2 [3] was 0.1 to 100 nM throughout.

Regarding `CNC(=O)N1CC(CNc2cc(C(F)(F)F)nc3ccc(Cl)cc23)(n2cccn2)C1` [Example 52, 3-(((6-Chloro-2-(trifluoromethyl)quinolin-4-yl)amino)methyl)-N-methyl-3-(1H-pyrazol-1-yl)azetidine-1-carboxamide], the IC50 on MRGPRX2 [1], at MRGPRX2 [2] and on MRGPRX2 [3] was 0.1 to 100 nM in each case.

As for `NS(=O)(=O)N1CCC(CNc2cc(C(F)(F)F)nc3ccc(F)cc23)(c2ccccc2)CC1` [Example 11, 4-(((6-Fluoro-2-(trifluoromethyl)quinolin-4-yl)amino)methyl)-4-phenylpiperidine-1-sulfonamide], the half-inhibitory concentration (IC50) at MRGPRX2 [1], at MRGPRX2 [2] and on MRGPRX2 [3] was 0.1 to 100 nM throughout.

`NS(=O)(=O)N1CC(CNc2cc(C(F)(F)F)nc3ccc(Cl)cc23)(c2ncccc2F)C1` [Example 43, 3-(((6-Chloro-2-(trifluoromethyl)quinolin-4-yl)amino)methyl)-3-(3-fluoropyridin-2-yl)azetidine-1-sulfonamide]: the half-inhibitory concentration (IC50) at MRGPRX2 [1], on MRGPRX2 [2] and on MRGPRX2 [3] was 0.1 to 100 nM each time.

Turning to `O=C(NC1CC1)N1CC(CNc2cc(C(F)(F)F)nc3ccc(Cl)cc23)(n2cc(F)cn2)C1` [Example 27, 3-(((6-Chloro-2-(trifluoromethyl)quinolin-4-yl)amino)methyl)-N-cyclopropyl-3-(4-fluoro-1H-pyrazol-1-yl)azetidine-1-carboxamide], the half-inhibitory concentration (IC50) on MRGPRX2 [1], at MRGPRX2 [2] and on MRGPRX2 [3] was 0.1 to 100 nM in each case.

For the molecule `NC(=O)N1CC(CNc2cc(C(F)(F)F)nc3ccc(F)cc23)(c2ccc(F)cc2)C1` [Example 25, 3-(((6-Fluoro-2-(trifluoromethyl)quinolin-4-yl)amino)methyl)-3-(4-fluorophenyl)azetidine-1-carboxamide], the IC50 at MRGPRX2 [1], on MRGPRX2 [2] and on MRGPRX2 [3] was 0.1 to 100 nM throughout.

`Cc1ccc2nc(C(F)(F)F)cc(NCC3(c4ccc(F)cc4)CN(S(N)(=O)=O)C3)c2c1` [Example 2, 3-(4-Fluorophenyl)-3-(((6-methyl-2-(trifluoromethyl)quinolin-4-yl)amino)methyl)azetidine-1-sulfonamide]: the concentration for half-maximal inhibition (IC50) on MRGPRX2 [1], at MRGPRX2 [2] and on MRGPRX2 [3] was 0.1 to 100 nM throughout.
